Data published in patent US11160279B2, “Method of controlling herbicide resistant weeds” (Sumitomo Chemical Company, Limited, priority 2018, dated 2021).

Columns and labels:
Assay type in all cases: in vivo
[1] = tested on: Amaranthus palmeri having an Arg128Met mutation in PPO2; assay: Soil surface treatment on the day the weed is sown, soybean sown 7 days later, greenhouse pot test (Example 1); details: 10, 20, 40, or 80 g/ha applied to soil surface, 200 L/ha aqueous dilution; soybean sown after 7 days; examined after 14 days
Text: Amaranthus palmeri having an Arg128Met mutation in PPO2 is sown in a plastic pot. On the same day, a compound X is applied to the surface of soil in an amount of 10, 20, 40, or 80 g/ha by spraying 200 L/ha of an aqueous dilution containing the compound X. Then, the weeds are cultivated in a greenhouse and soybean seeds are sown after 7 days, to examine the effects on the weeds and phytotoxic effects on soybean after 14 days.

[2] = tested on: Amaranthus palmeri having an Arg128Met mutation in PPO2; assay: Soil surface treatment on the day weed and soybean are sown, greenhouse pot test (Example 2); details: 10, 20, 40, or 80 g/ha applied to soil surface on day of sowing, 200 L/ha aqueous dilution; examined after 21 days
Text: Amaranthus palmeri having an Arg128Met mutation in PPO2 and soybean are sown in a plastic pot. On the same day, a compound X is applied to the surface of soil in an amount of 10, 20, 40, or 80 g/ha by spraying 200 L/ha of an aqueous dilution containing the compound X. Then, the weeds and soybean are cultivated in a greenhouse to examine the effects on the weeds and phytotoxic effects on soybean after 21 days.

[3] = tested on: Amaranthus palmeri having an Arg128Met mutation in PPO2; assay: Foliar treatment 21 days after sowing weed and soybean, greenhouse pot test (Example 3); details: 10, 20, 40, or 80 g/ha foliar treatment 21 days after sowing, 200 L/ha aqueous dilution; examined 14 days after the treatment
Text: Amaranthus palmeri having an Arg128Met mutation in PPO2 and soybean are sown in a plastic pot. Then, the weeds and soybean are cultivated in a greenhouse. A compound X is applied in an amount of 10, 20, 40, or 80 g/ha by spraying 200 L/ha of an aqueous dilution containing the compound X to perform foliar treatment 21 days after the sowing. Then, the weeds and soybean are cultivated in a greenhouse to examine the effects on the weeds and phytotoxic effects on soybean 14 days after the treatment.

Measured: effects on the weeds (herbicidal effect)

CCOC(=O)COc1ncccc1Oc1cc(-n2c(=O)cc(C(F)(F)F)n(C)c2=O)c(F)cc1Cl [compound X, Ethyl [3-[2-chloro-4-fluoro-5-(1-methyl-6-trifluoromethyl-2,4-dioxo-1,2,3,4-tetrahydropyrimidine-3-yl)phenoxy]-2-pyridyloxy]acetate]
valuable effect: all assays above
